Read-outs that look alike come from different tables or passages of the source.
How the values were obtained:
NF-κB = assay: 5.1 cell line + TNFα, HIV-LTR luciferase (NF-κB activation); format: cell-based; conditions: for inhibition at 25 µM: read-out: Antiviral activity 5.1 + TNFα 25 µM (inhibition of NF-κB function); for inhibition at 50 µM: read-out: Antiviral activity 5.1 + TNFα 50 µM (inhibition of NF-κB function); for specificity of NF-κB inhibition, in words: with HeLa-Tet-ON evaluation
Excerpt: (§1) In the characterization of anti-HIV activity, the effect of these coumarins on Tat and NF-κB functions has been evaluated in a similar manner as we described in a previous publication. We have used two transfected 5.1 cell lines, in which we measured NF-κB activation induced by TNFα [42] and HeLa-Tat-Luc cells, in which the HIV-1 LTR is directly activated by the HIV-1 Tat protein. Most of the compounds were submitted for further evaluation through a HeLa-Tet-ON assay in order to determine the selectivity of their action. To avoid missing compounds acting through another mechanism, all substances were also evaluated using a recombinant virus (RV) assay. In this system, a luciferase reporter gene was cloned in full-length infectious DNA. As a result, the measured luciferase activity is therefore proportional to viral replication.
(§2) The anti-HIV activity of these coumarins on Tat and NF-κB functions has been analysed. To this aim, we have used two stably transfected cell lines. The previously described 5.1 cell line is a Jurkat-derived clone stably transfected with a plasmid containing the luciferase gene under the control of HIV-LTR. In this cell clone, activation with TNFα induces NF-κB activation and subsequent HIV-1 expression. We have also analyzed the anti-HIV activity in HeLa-Tat-Luc cells, in which the HIV-1 LTR is directly activated by the HIV-1 Tat protein. A compound was considered active in one assay if it inhibited the target function by more than 50% (NF-κB) or 30% (Tat) at either 25 or 50 μM concentration. The active compounds were submitted for further evaluation through a HeLa-Tet-ON assay, as previously described. In the Hela-Tet-ON cells the luciferase expression is under control of an artificial promoter that can be activated by tetracycline. Therefore, compounds that inhibit tetracycline-induced luciferase activity were considered non-specific for luciferase-based anti-HIV assays and were not examined further, and those showing specific activity (non-inhibitors in HeLa-Tet-ON cells) were analysed using a recombinant virus (RV) assay. […] In this system, a luciferase reporter gene has been cloned in full-length infectious DNA. The measured luciferase activity is therefore directly proportional to the replication of the virus. This assay is more sensitive and reliable than classic infectious assays. Cell viability was evaluated in non-infected treated cultures following the same protocol as in the recombinant virus assay and measuring cell toxicity with a classical MTT assay. IC50 and CC50 were calculated using GraphPad Prism software [non-linear regression, log (inhibitor) vs. response].

HIV-1 Tat protein = assay: HeLa-Tat-Luc cells, HIV-1 LTR activated by Tat; format: cell-based; conditions: for anti-Tat activity and specificity, in words: HeLa-Tat-Luc and Hela-Tet-ON assays; for inhibition at 25 µM: Human immunodeficiency virus 1, read-out: Antiviral activity Hela-Tat-luc 25 µM (inhibition of Tat function); for inhibition at 50 µM: Human immunodeficiency virus 1, read-out: Antiviral activity Hela-Tat-luc 50 µM (inhibition of Tat function)
Excerpt: as §1, §2

[1] = tested on: tetracycline-induced luciferase activity in HeLa-Tet-ON cells; assay: HeLa-Tet-ON specificity assay; format: cell-based; design: key: S: specific; U: unspecific modes of action
Excerpt: as §1, §2

HIV-1 = assay: Recombinant virus (RV) assay, luciferase reporter virus on MT-2 cells; format: cell-based; conditions: for rank as inhibitor of HIV replication, in words: RV assay; for fold lesser potent than 11 in the RV assay: relative to compound 11
Protocol: We have synthesized fourteen 3-phenylcoumarin derivatives and evaluated their anti-HIV activity. Antiviral activity was assessed on MT-2 cells infected with viral clones carrying the luciferase gene as reporter. Inhibition of HIV transcription and Tat function were tested on cells stably transfected with the HIV-LTR and Tat protein. […] The antiviral effect of the 4-hydroxycoumarin derivative 19 correlates with its specific inhibition of Tat functions, while compound 8, 3-(2-chlorophenyl)coumarin, seems to act through a mechanism unrelated to the molecular targets considered in this research.
as §1, §2

non-infected MT-2 cells = assay: Cell viability, MTT assay in non-infected treated cultures; format: cell-based; design: Toxicity (%) CC50: unit not given here
Excerpt: as §2

[2] = Human immunodeficiency virus 1, MT2, read-out: RV (VIH) IC50

Compound	inhibition at 25 µM (NF-κB)	inhibition at 50 µM (NF-κB)	anti-Tat activity and specificity, in words (HIV-1 Tat protein)	inhibition at 25 µM (HIV-1 Tat protein)	inhibition at 50 µM (HIV-1 Tat protein)	HeLa-Tet-ON 50 µM (specific / unspecific mode of action) [1]	IC50 (HIV-1; [2])	Toxicity (%) CC50 (non-infected MT-2 cells; MTT, non-infected cultures)	melting point	inhibitory activity in the NF-κB test, in words (NF-κB; 25 μM)	inhibitory activity in the NF-κB test, in words (NF-κB; 50 µM)	rank as inhibitor of HIV replication, in words (HIV-1)	IC50 (HIV-1; recombinant virus, luciferase, read-out: RV (VIH) IC50)	CC50 (non-infected MT-2 cells; comparison drug, read-out: Toxicity CC50)	specificity of NF-κB inhibition, in words (NF-κB)	fold lesser potent than 11 in the RV assay (HIV-1)	inhibition at 50 µM (NF-κB; 50 µM, 5.1 Jurkat-derived cells, TNFα)	Toxicity (%) CC50 (non-infected MT-2 cells; human)
COc1ccc2c(O)c(-c3ccccc3)c(=O)oc2c1 [Compound 19, 4-Hydroxy-7-methoxy-3-phenyl-2H-chromen-2-one]	-34.3 ± 5%	-4.7 ± 0.3%	modest, but specific inhibition	48.9 ± 3.4%	55.7 ± 4.9%	S	23.8 ± 1.7 µM	>50	217 to 219 °C	–	–	–	–	–	–	–	–	–
COc1ccc2c(Cl)c(-c3ccccc3)c(=O)oc2c1 [Compound 20, 4-Chloro-7-methoxy-3-phenyl-2H-chromen-2-one]	–	-21.2 ± 7%	–	–	-64.4 ± 10%	–	> 209 µM	18.4 ± 8.2	–	–	–	–	–	–	–	–	–	–
CSc1ccc(-c2cc3ccccc3oc2=O)cc1 [Compound 11, 3-(4-Methylsulfanylphenyl)-2H-chromen-2-one]	84.3 ± 3%	81.6 ± 5.6%	potent though unspecific anti-Tat activity	77.5 ± 8.5%	80.1 ± 5.6%	U	18.2 ± 0.2 µM	>50	157 to 159 °C	confirmed	fair inhibitory activity	most potent inhibitor of HIV replication	–	–	–	–	–	–
COc1ccc(-c2cc3ccccc3oc2=O)cc1OC [Compound 14, 3-(3,4-Dimethoxyphenyl)-2H-chromen-2-one]	–	-23 ± 2.9%	–	–	-25.1 ± 5.3%	–	> 177 µM	>50	127 to 129 °C	–	–	–	–	–	–	–	–	–
Cc1cn([C@H]2C[C@H](N=[N+]=[N-])[C@@H](CO)O2)c(=O)[nH]c1=O [AZT, reference compound]	–	–	–	–	–	–	–	–	–	–	–	–	0.01 µM	> 1 µM	–	–	–	–
O=c1oc2cc(O)ccc2cc1-c1ccccc1 [Compound 16, 7-Hydroxy-3-phenyl-2H-chromen-2-one]	–	59 ± 8.2%	–	–	17.2 ± 0.5%	S	81.4 ± 14 µM	>50	–	–	fair inhibitory activity	–	–	–	specific inhibitors of the NF-κB function	–	–	–
COc1ccc(-c2cc3ccccc3oc2=O)cc1 [Compound 10, 3-(4-Methoxyphenyl)-2H-chromen-2-one]	–	61.2 ± 2.4%	potent though unspecific anti-Tat activity	73.5 ± 6.7%	66.6 ± 3.4%	U	73 ± 8.6 µM	–	141 to 143 °C	–	fair inhibitory activity	–	–	–	–	4-5 fold	–	–
O=c1oc2ccccc2cc1-c1ccc(Cl)cc1Cl [Compound 12, 3-(2,4-Dichlorophenyl)-2H-chromen-2-one]	–	-40.9 ± 2.3%	–	–	14.1 ± 0.6%	S	> 172 µM	>50	226 to 228 °C	–	–	–	–	–	–	–	–	–
O=c1oc2ccccc2cc1-c1ccccc1Cl [Compound 8, 3-(2-Chlorophenyl)-2H-chromen-2-one]	–	-28.7 ± 4%	–	–	17.6 ± 2.1%	S	20.7 ± 1.9 µM	>50	186 to 188 °C	–	–	second more potent replication inhibitor	–	–	–	–	–	–
COc1cc(-c2cc3ccccc3oc2=O)cc(OC)c1OC [Compound 15, 3-(3,4,5-Trimethoxyphenyl)-2H-chromen-2-one]	–	49.7 ± 7%	–	47.6 ± 6.2%	35.1 ± 3.9%	U	62.7 ± 13.1 µM	42.8 ± 16.2	122 to 124 °C	–	fair inhibitory activity	–	–	–	unspecific	–	–	–
O=c1oc2ccccc2cc1-c1ccc(Cl)cc1 [Compound 9, 3-(4-Chlorophenyl)-2H-chromen-2-one]	–	33 ± 2.33%	–	–	-4.9 ± 0.8%	–	> 195 µM	>50	190 to 192 °C	–	–	–	–	–	–	–	–	–
COc1ccc2oc(=O)c(-c3ccccc3)c(O)c2c1 [Compound 18, 4-Hydroxy-6-methoxy-3-phenyl-2H-chromen-2-one]	–	–	–	–	22.8 ± 3.4%	S	186 ± 10.8 µM	–	–	–	–	–	–	–	–	–	-3.5 ± 0.9%	>50
COc1ccc(-c2cc3cccc(O)c3oc2=O)cc1 [Compound 17, 8-Hydroxy-3-(4-methoxyphenyl)-2H-chromen-2-one]	82.2 ± 3.1%	87.8 ± 9.8%	potent though unspecific anti-Tat activity	85.7 ± 3.4%	88.3 ± 5.5%	U	84.6 ± 12.1 µM	>50	–	confirmed	fair inhibitory activity	–	–	–	–	4-5 fold	–	–
O=c1oc2ccccc2cc1-c1ccccc1 [Compound 7, 3-Phenyl-2H-chromen-2-one]	–	21.7 ± 3%	–	26.8 ± 2.9%	33.7 ± 1%	S	130 ± 11.4 µM	>50	–	–	–	–	–	–	–	–	–	–

Source: publication PMC6268528, “3-Phenylcoumarins as Inhibitors of HIV-1 Replication” (Molecules, 2012)
